{
  "source": "patent US7541020B2",
  "about": "“Aminoalkyl glucosaminide phosphate compounds and their use as adjuvants and immunoeffectors” (priority 1997, dated 2009)",
  "key": {"[1]": {"test_system": "hepatitis B surface antigen (HBsAg)", "experiment": "Serum anti-HBsAg antibody titers after intranasal HBsAg + AGP-AF (ELISA)", "assay_type": "in vivo, BALB/c mice", "settings": "for Anti HBsAg Titer^−1 IgG1 / Anti HBsAg Titer^−1 IgG2a: K = 10^3"}, "influenza A/HK/68": {"test_system": "influenza A/HK/68", "settings": "mouse, in vivo"}, "[2]": {"test_system": "hepatitis B surface antigen (HBsAg)", "experiment": "Anti-HBsAg antibody titer with AGP-SE (ELISA plates coated with HBsAg or p72 peptide)", "settings": "sera day 28 post 2°, 25 μg AGP-SE"}, "tetanus toxoid": {"test_system": "tetanus toxoid", "settings": "mouse, in vivo"}, "[3]": {"test_system": "hepatitis B surface antigen (HBsAg)", "experiment": "Vaginal wash anti-HBsAg antibody after intranasal HBsAg + AGP-AF", "assay_type": "in vivo, BALB/c mice", "settings": "10 days after the booster immunization; intranasal HBsAg + 10 μg AGP-AF", "source_text": "Vaginal samples were collected 10 days after the booster immunization and assayed for anti-HBsAg antibody."}, "[4]": {"test_system": "Hepatitis B surface antigen", "experiment": "Randomized controlled clinical study of AgB/RC-210-04 versus AgB: seroprotection, seroconversion, anti-HBsAg titers", "assay_type": "in vivo, human", "settings": "healthy adults; RC-210-04 added to AgB"}, "[5]": {"settings": "day 22 post 2°, HBsAg + 10 μg AGP-AF intranasally"}, "[6]": {"settings": "serum, day 21 post 3°, intranasal HBsAg + 10 μg AGP-AF"}, "[7]": {"settings": "ELISA plates coated with p72 peptide"}},
  "note": "Several values for one entry are separate records, joined by “and”; a condition that tells them apart may be missing. Equal values may be shown once.",
  "data": [
    {"substance": "2-[(R)-3-Tetradecanoyloxytetradecanoylamino]ethyl 2-Deoxy-4-O-phosphono-3-O-[(R)-3-tetradecanoyoxytetradecanoyl]-2-[(R)-3-tetradecanoyoxytetradecanoylamino]-β-D-glucopyranoside Triethylammonium Salt [B19]", "values": [
      {"measurement": "Anti HBsAg Titer^−1 IgA", "setting": "[1]; [5]", "value": "1,600"},
      {"measurement": "Anti HBsAg Titer^−1 IgG1", "setting": "[1]; [5]", "value": 500, "unit": "K"},
      {"measurement": "Anti HBsAg Titer^−1 IgG2a", "setting": "[1]; [5]", "value": 64, "unit": "K"},
      {"measurement": "Anti HBsAg Titer^−1 IgG1", "setting": "[1]; [6]", "value": 2000, "unit": "K"},
      {"measurement": "Anti HBsAg Titer^−1 IgG2a", "setting": "[1]; [6]", "value": 500, "unit": "K"},
      {"measurement": "Anti HBsAg Titer^−1 IgA", "setting": "[1]; [6]", "value": "12,800"},
      {"measurement": "Percent Survival", "setting": "influenza A/HK/68", "value": 50, "unit": "%"},
      {"measurement": "Titer−1 IgG1", "setting": "influenza A/HK/68", "value": 100},
      {"measurement": "Titer−1 IgG2a", "setting": "influenza A/HK/68", "value": 800},
      {"measurement": "Titer−1 IgG2b", "setting": "influenza A/HK/68", "value": 6400},
      {"measurement": "Titer−1 Total IgG", "setting": "influenza A/HK/68", "value": "12,800"},
      {"measurement": "Anti-HBsAg Titer^−1 HBsAg IgG1", "setting": "[2]; ELISA plates coated with HBsAg", "value": 1024, "unit": "K"},
      {"measurement": "Anti-HBsAg Titer^−1 HBsAg IgG2a", "setting": "[2]; ELISA plates coated with HBsAg", "value": 1024, "unit": "K"},
      {"measurement": "Anti-HBsAg Titer^−1 p72-Peptide IgG1", "setting": "[2]; [7]", "value": 64, "unit": "K"},
      {"measurement": "Anti-HBsAg Titer^−1 p72-Peptide IgG2a", "setting": "[2]; [7]", "value": 128, "unit": "K"},
      {"measurement": "Anti-Tetanus Toxoid Titer^−1 Fecal Extract IgA", "setting": "tetanus toxoid", "value": "3200 and 6400"},
      {"measurement": "Anti-Tetanus Toxoid Titer^−1 Fecal Extract IgG", "setting": "tetanus toxoid", "value": 25},
      {"measurement": "Anti-Tetanus Toxoid Titer^−1 Serum Pools IgG1", "setting": "tetanus toxoid", "value": "2M and 4M"},
      {"measurement": "Anti-Tetanus Toxoid Titer^−1 Vaginal Wash IgA", "setting": "tetanus toxoid", "value": "1600 and 3200"},
      {"measurement": "Anti-Tetanus Toxoid Titer^−1 Vaginal Wash IgG", "setting": "tetanus toxoid", "value": "200 and 400"},
      {"measurement": "Vaginal Wash Anti-HBsAg Titer^−1 IgA", "setting": "[3]", "value": 400},
      {"measurement": "Vaginal Wash Anti-HBsAg Titer^−1 IgG", "setting": "[3]", "value": "<50"},
      {"measurement": "antibody responses to Hepatitis B surface antigen (in words)", "setting": "[4]", "value": "faster and greater antibody responses"}
    ]}
  ]
}
